# In patent publication US12465588B2, “Indole carboxamide derivative and pharmaceutical composition containing same” (KUKJE PHARMA CO., LTD., priority 2019, dated 2025):
# Marks after values point to notes of the source that are not given here.
# Legend:
# [1] = tested on: acetic acid-induced abdominal contraction mouse model; assay: Anti-pain efficacy test, acetic acid-induced abdominal contraction mouse model; type: in vivo; details: oral, 1 hour before 0.7% acetic acid i.p.; writhing counted for 10 minutes (FIG. 5)
# Experimental: In order to evaluate the anti-pain efficacy of the compound according to the present invention in abdominal contraction mice, an experiment was conducted as follows.
# Specifically, male ICR mice weighing about 20 to 25 g from Orient Bio Co., Ltd. (Gyeonggi-do, Korea) were acclimated in a laboratory for 7 days and provided chow and water ad libitum. Temperature (20±2° C.), humidity (40±60%) and light/dark cycle (12 hours) were controlled automatically.
# Based on 10 mice per group, the control group was orally administered with an excipient (200 μL), and the positive control group was orally administered with celecoxib at 25 mg/kg. Compound 9 of the present invention was dissolved in an excipient (10% NMP (N-methyl-2-pyrrolidone), 10% ethanol, 80% polyethylene glycol 400) and administered orally at 10 and 50 mg/kg to each mouse. One hour after drug administration, 0.7% acetic acid was intraperitoneally injected at […] to induce pain. The number of writhing was measured for 10 minutes from 10 minutes after the acetic acid administration.
# In this experiment, the less the number of writhing for 10 minutes, the stronger the anti-pain efficacy of the drug was evaluated. The statistical significance compared to the control group was represented as **P<0.01, *P<0.05 compared to the control group.
# [2] = tested on: A549 human lung cancer cells; assay: Measurement of PGE2 in IL-1β-treated A549 human lung cancer cells; type: cell-based; details: PGE2 production, A549 cell, IL-1β 1 ng/mL, 48 hours
# Experimental: Samples at various concentrations were added at 24 hours after A549 human lung cancer cells were seeded. After 1 hour, IL-1β of 1 ng/mL was added. The cells were cultured for 48 hours and then the culture supernatant was collected. PGE2 of the collected supernatant was measured according to the manufacturer's instructions using a PGE2 EIA kit.
# [3] = tested on: guinea pig model of osteoarthritis induced by MIA (monosodium iodoacetate); assay: Hind limb incapacitance test in guinea pig model of osteoarthritis induced by MIA; type: in vivo; details: for Weight-bearing ratio: GRC27864 12.5 mg/kg oral
# Experimental: An experiment was conducted as follows in order to evaluate the efficacy of the compound according to the present invention for osteoarthritis-induced guinea pigs.
# (§1) Specifically, male guinea pigs weighing about 500 g±20% from Coretech Co., Ltd. (Gyeonggi-do, Korea) were acclimated in a laboratory for 8 days, and provided chow and water ad libitum. Temperature (23±3° C.), humidity (55±15%) and light/dark cycle (12 hours, 08:00˜20:00) were controlled automatically.
# (§2) Each group consisted of 10 guinea pigs. Guinea pigs were anesthetized with Zoletil 50 (VIRBAC, France, 5 mg/kg) and xylazine (Rompun®, Bayer AG, Germany, 2.5 mg/kg) and depilated at the area around the right knee with Clipper. Using a C-arm (ARCADIS Varic, SIEMENS Co.), it was confirmed that a syringe equipped with a 26 gauge needle was located in the joint cavity. 50 μL of MIA at a concentration of 60 mg/mL was administered into the joint cavity. One week after MIA administration, Compound 9 of the present invention was added to excipients (DMSO (10% by weight), Tween 80 (30% by weight), HMPC (same amount as the drug)), dissolved in water so that the total amount was 100% by weight, and orally administered to the prepared experimental animals at 10 mg/kg and 25 mg/kg, respectively. In the positive control group, GRC27864 was orally administered at 12.5 mg/kg using the same excipient, and only the excipient was orally administered to the control group. The drug was administered for 4 weeks.
# (§3) The hind limb incapacitance test was performed for the behavioral evaluation weekly for 4 weeks and the inflammatory factor evaluation was performed by measuring PGE2, IL-1β, and TNF-α in blood after 4 weeks.
# The hind limb weight-bearing ratios were obtained by setting up the animals at an inclination of 60 degrees in a plastic room using an incapacitance meter tester, measuring the intensity applied to each hind limb over 10 seconds, and calculating an average. Weight-bearing ratios are 50% for normal cases and up to early 30% for the cases in which a disease is induced.
# [4] = tested on: PGE2, IL-1β, and TNF-α in blood; assay: Inflammatory factor evaluation (ELISA) in blood of MIA osteoarthritis guinea pigs; type: in vivo, guinea pig; details: blood, after 4 weeks, 12.5 mpk oral
# Experimental: as §1, §2, §3
# The concentrations of PGE2, IL-1β, and TNF-α in blood were measured using commercially available ELISA kit after 4 weeks. The results are shown in Table 4 below and FIGS. 2 to 4. ***, ** and * represent statistical significance compared to the control group, and are P<0.001, P<0.01, and P<0.05 compared to the control group.
Structure (SMILES),IC50 [2] [nM],also measured
"Cc1ccc(-c2cc(C(F)(F)F)nn2-c2ccc(S(N)(=O)=O)cc2)cc1 [celecoxib, reference compound]",,number of writhing compared to the control group [1]: significantly lower number of writhing compared to the control group
"CC(C)C(=O)NCc1ccc(Cl)c(C(=O)Nc2ccc3[nH]c(C(=O)Nc4ccc(C(F)(F)F)cc4)cc3c2)c1 [Compound 75, 5-(2-chloro-5-(isobutyramidomethyl)benzamido)-N-(4-(trifluoromethyl)phenyl)-1H-indole-2-carboxamide]",6.49,
"CC(C)C(=O)NCc1ccc(Cl)c(C(=O)Nc2ccc3[nH]c(C(=O)Nc4ccc(OC(F)(F)F)cc4)cc3c2)c1 [Compound 74, 5-(2-chloro-5-(isobutyramidomethyl)benzamido)-N-(4-(trifluoromethoxy)phenyl)-1H-indole-2-carboxamide]",5.87,
"CC(C)C(=O)NCc1ccc(Cl)c(C(=O)Nc2ccc3c(c2)cc(C(=O)N2CCN(c4ncccn4)CC2)n3C)c1 [Compound 21, 2-chloro-5-(isobutyramidomethyl)-N-(1-methyl-2-(4-(pyrimidin-2-yl)piperazin-1-carbonyl)-1H-indole-5-yl)benzamide]",> 100,
"CC(C)C(=O)NCc1ccc(Cl)c(C(=O)Nc2ccc3c(c2)cc(C(=O)Nc2ccc(C(F)(F)F)nc2)n3C)c1 [Compound 18, 5-(2-chloro-5-(isobutyramidomethyl)benzamido)-1-methyl-N-(6-(trifluoromethyl)pyridin-3-yl)-1H-indole-2-carboxamide]",60,
"Cc1cc(F)ccc1NC(=O)c1cc2cc(NC(=O)c3cc(CNC(=O)C(C)C)ccc3Cl)ccc2n1C [Compound 23, 5-(2-chloro-5-(isobutyramidomethyl)benzamido)-N-(4-fluoro-2-methylphenyl)-1-methyl-1H-indole-2-carboxamide]",45,
"CC(C)C(=O)NCc1ccc(Cl)c(C(=O)Nc2ccc3c(c2)cc(C(=O)Nc2ccc(Br)cc2)n3C)c1 [Compound 13, N-(4-bromophenyl)-5-(2-chloro-5-(isobutyramidomethyl)benzamido)-1-methyl-1H-indole-2-carboxamide]",26.4,
"CC(C)C(=O)NCc1ccc(Cl)c(-c2nc3cc(-c4ccc(C(F)(F)F)cc4)ncc3c(=O)[nH]2)c1 [GRC27864, reference compound]",3.21,"Weight-bearing ratio ([3]; day 0): 40.84 ± 2.68%; Weight-bearing ratio ([3]; day 7): 43.66 ± 4.51%; Weight-bearing ratio ([3]; day 14): 39.85 ± 3.29%; Weight-bearing ratio ([3]; day 21): 37.35 ± 4.43%; Weight-bearing ratio ([3]; day 28): 40.92 ± 3.85%; weight-bearing ratios, course in words ([3]; over 4 weeks of oral administration after MIA): did not worsen after MIA administration but were maintained; IL-1β (ELISA analysis) [4]: 37.408 ± 9.109; PGE2 (ELISA analysis) [4]: 7756.9 ± 1860.5**; TNF-α (ELISA analysis) [4]: 97.110 ± 20.595*"
"Cc1cc(Cl)ccc1NC(=O)c1cc2cc(NC(=O)c3cc(CNC(=O)C(C)C)ccc3Cl)ccc2n1C [Compound 22, N-(4-chloro-2-methylphenyl)-5-(2-chloro-5-(isobutyramidomethyl)benzamido)-1-methyl-1H-indole-2-carboxamide]",27.4,

# Now from value to molecule, other results behind:
IC50 [2] [nM],Structure (SMILES),also measured
51.6,"CC(C)C(=O)NCc1ccc(Cl)c(C(=O)Nc2ccc3c(c2)cc(C(=O)N[C@@H](C)c2ccc(OC(F)(F)F)cc2)n3C)c1 [Compound 61, (S)-5-(2-chloro-5-(isobutyramidomethyl)benzamido)-1-methyl-N-(1-(4-(trifluoromethoxy)phenyl)ethyl)-1H-indole-2-carboxamide]",
43.3,"CC(C)C(=O)NCc1ccc(Cl)c(C(=O)Nc2ccc3c(c2)cc(C(=O)N[C@@H](C)c2ccc([N+](=O)[O-])cc2)n3CC(F)(F)F)c1 [Compound 66, (S)-5-(2-chloro-5-(isobutyramidomethyl)benzamido)-N-(1-(4-nitrophenyl)ethyl)-1-(2,2,2-trifluoroethyl)-1H-indole-2-carboxamide]",
20.1,"CC(C)C(=O)NCc1ccc(Cl)c(C(=O)Nc2ccc3c(c2)cc(C(=O)NCc2ccc(Cl)c(F)c2)n3CC(F)(F)F)c1 [Compound 71, N-(4-chloro-3-fluorobenzyl)-5-(2-chloro-5-(isobutyramidomethyl)benzamido)-1-(2,2,2-trifluoroethyl)-1H-indole-2-carboxamide]",
27.5,"CC(C)C(=O)NCc1ccc(Cl)c(C(=O)Nc2ccc3c(c2)cc(C(=O)NCc2ccc(C(C)(C)C)cc2)n3CC(F)(F)F)c1 [Compound 62, N-(4-(tert-butyl)benzyl)-5-(2-chloro-5-(isobutyramidomethyl)benzamido)-1-(2,2,2-trifluoroethyl)-1H-indole-2-carboxamide]",
9.5,"CC(C)C(=O)NCc1ccc(Cl)c(C(=O)Nc2ccc3c(c2)cc(C(=O)N[C@H](C)c2ccc(OC(F)(F)F)cc2)n3C)c1 [Compound 59, (R)-5-(2-chloro-5-(isobutyramidomethyl)benzamido)-1-methyl-N-(1-(4-(trifluoromethoxy)phenyl)ethyl)-1H-indole-2-carboxamide]",
5.22,"CC(C)C(=O)NCc1ccc(Cl)c(C(=O)Nc2ccc3c(c2)cc(C(=O)Nc2ccc(C(F)(F)F)cc2)n3C)c1 [Compound 8, 5-(2-chloro-5-(isobutyramidomethyl)benzamido)-1-methyl-N-(4-(trifluoromethyl)phenyl)-1H-indole-2-carboxamide]",
9.59,"CC(C)C(=O)NCc1ccc(Cl)c(C(=O)Nc2ccc3c(c2)cc(C(=O)NCc2ccc(C(C)(C)C)cc2)n3C)c1 [Compound 33, N-(4-(tert-butyl)benzyl)-5-(2-chloro-5-(isobutyramidomethyl)benzamido)-1-methyl-1H-indole-2-carboxamide]",
> 100,"CC(C)C(=O)NCc1ccc(Cl)c(C(=O)Nc2ccc3c(c2)cc(C(=O)Nc2cc(-c4ccc(C(F)(F)F)cc4)n[nH]2)n3C)c1 [Compound 19, 5-(2-chloro-5-(isobutyramidomethyl)benzamido)-1-methyl-N-(3-(4-(trifluoromethyl)phenyl)-1H-pyrazole-5-yl)-1H-indole-2-carboxamide]",
8.52,"CC(C)C(=O)NCc1ccc(Cl)c(C(=O)Nc2ccc3c(c2)cc(C(=O)NCc2ccc(F)cc2)n3CC(F)(F)F)c1 [Compound 68, 5-(2-chloro-5-(isobutyramidomethyl)benzamido)-N-(4-fluorobenzyl)-1-(2,2,2-trifluoroethyl)-1H-indole-2-carboxamide]",
6.87,"Cc1c(-c2ccc(C(F)(F)F)cc2)n[nH]c1NC(=O)c1cc2cc(NC(=O)c3cc(CNC(=O)C(C)C)ccc3Cl)ccc2n1C [Compound 20, 5-(2-chloro-5-(isobutyramidomethyl)benzamido)-1-methyl-N-(4-methyl-3-(4-(trifluoromethyl)phenyl)-1H-pyrazol-5-yl)-1H-indole-2-carboxamide]",
